Experimental data: patent publication US6191147A, “Pyrazole compounds and uses thereof” (PPD Discovery, Inc., priority 1999, dated 2001)

Tests used:
FPTase = FPTase (Homo sapiens, UniProt P49354+P49356); test: FPTase inhibition ([3H]FPP transfer to H-Ras); format: biochemical; details: 40 μM test compound (unless otherwise indicated)
Protocol: (§1) For those assays, the reaction mixtures contained the following components in 50 μl:0.25 μM [^3 H]GGPP (sp. act. 8-10 Ci/mmol), 2.5 μM Ras-CVLL, 50 mM Tris-Cl, pH 7.7, 20 mM KCl, 5 mM MgCl2, 5 μM ZnCl2, 1 mM DTT, 0.5 mM Zwittergent 3-14 and the desired amount of the compound to be tested for inhibitory potential. After pre-equilibrating the assay mixture at 30° C. in the absence of the enzyme, the reaction was initiated by addition of the enzyme (75 ng). Following an about 10 minute incubation at about 30° C., the reactions were terminated by addition of about 0.5 ml of about 4% SDS. About 40 mg of bovine brain membranes was added to the samples to enhance recovery during precipitation. […] Reactions were never allowed to proceed to more than 10% completion based on the limiting substrate. Assays for the inhibition studies of FPTase were performed analogous the GGPTase I inhibition studies, except [^3 H]GGPP was replaced with 0.25 μM of [^3 H]FPP (sp. act. 8-10 ci/mmol) and Ras-CVLL was replaced with 1 μM H-Ras.
(§2) Using the method described above, the GGPTase I and FPTase inhibitory activities of some of the compounds of the present invention were measured. The results of these measurements are provided in Tables I-VI, wherein a value of 100 indicates 100% GGPTase I or FPTase inhibition. Unless otherwise indicated, 40 μM concentration of a test compound is used. The term "alpha" refers to the position of R^1 substituent (e.g., 3,4-dichlorophenyl in Table I) on the nitrogen atom in the pyrazole ring that results in the shortest retention time using the HPLC gradient reported above, where as the term "beta" refers to the position of R^1 substituent (e.g., 3,4-dichlorophenyl in Table I) on the nitrogen atom in the pyrazole ring that results in a longer HPLC retention time than the alphα-regioisomer. Mixtures of regioisomers and/or enantiomers are used unless indicated otherwise using the above alpha and beta notations. The term "N/D" means not determined. In Tables I-VI, R^6 group indicated by *1 refers to {[N"-(1'-oxo-1'-pyrid-3-yl)methyl]-N'-carbamoyl}-3-aminopropyl moiety.

GGPTase I = target: T1, GGPTase I (Rattus norvegicus, UniProt P53610+Q04631); test: GGPTase I inhibition ([3H]GGPP transfer to Ras-CVLL); format: biochemical; details: 40 μM test compound (unless otherwise indicated)
T1 construct: made in house; host or cells: Sf9 insect cells (recombinant baculovirus, co-infection)
Protocol: as §1, §2

SMILES	inhibition at 40 µM (FPTase)	inhibition at 40 µM (GGPTase I)
NC(=O)C(CCCNC(=O)NC(=O)c1cccnc1)NC(=O)CCCCc1cc(-c2cccnc2)n[nH]1 (centres unmarked) [IX, R^6 = *1, R^1 = HYDROGEN]	57%	
NC(=O)C(Cc1c[nH]c2ccccc12)NC(=O)CCc1cc(-c2cccnc2)n[nH]1 (centres unmarked)	83%	24%
NC(=O)C(Cc1ccc(O)cc1)NC(=O)CCc1cc(-c2cccnc2)n[nH]1 (centres unmarked)		24%
NC(=O)CNC(=O)CCCCc1cc(-c2cccnc2)n[nH]1 [IX, R^6 = HYDROGEN, R^1 = HYDROGEN]	58%	
NC(=O)C(CCCNC(=O)NC(=O)c1cccnc1)NC(=O)CCc1cc(-c2cccnc2)n[nH]1 (centres unmarked) [X, R^6 = *1, R^1 = HYDROGEN]	50%	
CC(C)C(NC(=O)CCCCc1cc(-c2cccnc2)n[nH]1)C(N)=O (centres unmarked) [IX, R^6 = ISOPROPYL, R^1 = HYDROGEN]	78%	33%
CC(C)C(NC(=O)CCc1cc(-c2cccnc2)n[nH]1)C(N)=O (centres unmarked) [X, R^6 = ISOPROPYL, R^1 = HYDROGEN]	72%	
CS(=O)(=O)CCC(NC(=O)CCc1cc(-c2cccnc2)n[nH]1)C(N)=O (centres unmarked)	78%	
NC(=O)C(Cc1ccccc1)NC(=O)CCCCc1cc(-c2cccnc2)n[nH]1 (centres unmarked) [IX, R^6 = BENZYL, R^1 = HYDROGEN]		27%
